These results are taken from article PMC5147771, “High-Resolution Genetics Identifies the Lipid Transfer Protein Sec14p as Target for Antifungal Ergolines” (PLoS Genetics, 2016).

Data set [1] deals with S. cerevisiae deletion strains. As to the kind of experiment: Single strain growth inhibition of deletion strains (turbidity OD600). The settings on record: Saccharomyces cerevisiae, 24 h. Type of data set: cell-based.
The test system of data set [2] is 512 human cancer cell lines. As to the kind of experiment: Cancer Cell Line Encyclopedia proliferation assay. It counts as cell-based. An excerpt:
(§1) One key requirement of antifungal medicines is selective inhibition of the pathogen over the mammalian host. To explore potential undesired activity of NGx04 against mammalian cells we used the Cancer Cell Line Encyclopedia CCLE, a collection of 512 human cancer cell lines (broadinstitute.org/ccle). Dose-response curves for NGx04 were generated in a proliferation assay and IC50 values determined. […] Since HepG2 cells are known to be a suitable tool to profile toxicity of compounds [40], we used this liver-derived line to assess cytotoxicity of NGx04. […] 16 of 21 amino acid residues within a 5 Å radius from any atom of the docked Ngx04 ligand were not conserved between the two proteins. Critical differences in the active site of the human protein are the residues F178, C128, I151 and L186 (corresponding to S201, Y151, T175 and M209 in yeast) which form a smaller and more hydrophobic pocket compared to the yeast protein (Fig 4C). […]
(§2) Fig 4 Fungal selectivity. […] A) Dose-response curves for NGx04 were generated in growth inhibition assay and IC50 values determined in duplicates. […]
(§3) Profiling across the Cancer Cell Line Encyclopedia was performed as described previously. MTS toxicity was determined using a CellTiter 96 AQueous One Solution Cell Proliferation Assay kit from Peomega.

Data set [3] concerns wild type yeast carrying plasmid SEC14 variants. As to the kind of experiment: Growth inhibition titration of yeast re-transformed with plasmids coding for SEC14 variants. The settings on record: Saccharomyces cerevisiae, 18 h.
Description: A plasmid containing the wild type copy of SEC14 was used as control to exclude resistance due to SEC14 gene copy-number effects.
B) The plasmids coding for various SEC14 proteins were re-transformed into a fresh wild type yeast strain and serial dilutions of the cultures spotted on either 150 μM of NGx04 or DMSO control, incubated for 3 days at 30°C and scored for growth. C) The strains were grown for 24 h in the presence of increasing concentrations of NGx04 and growth measured by turbidity (OD600). Duplicate values were determined and the 18 h time point was used for logistic regression.
The next data set relates to S. cerevisiae BY4741. Put plainly: Phosphatidylinositol (PI) and phosphatidylcholine (PC) competition growth assay. It counts as cell-based. The settings on record: medium with 200 μM PI or 200 μM PC. From the text: To test this hypothesis, the S. cerevisisae x-ray structure of Sec14p was used to dock the NGx04 ligand into the lipid-binding cavity (Fig 3B). In the resulting docking model, the ester moiety of the ligand formed an H-bond with Y111 while the ergoline amine formed an H-bond with T175. The ergoline moiety also made van der Waals interactions with the residues Y122, Y151, S173, M177 and F212. The calculated docking model was in agreement with the experimental data from the mutagenesis study, as three of the four identified resistance conferring mutations were directly involved in ligand interactions (Y111, Y151 and S173) and the identified V154 residue, although not directly involved in ligand interactions, was only 4.5 Å away from NGx04. The model outlines that a larger residue at this position like Isoleucine would be deleterious for ligand binding. As our docking experiment was biased towards the lipid-binding cavity we aimed at further supporting evidence for NGx04 binding in this protein pocket. To do so we tested if NGx04 would compete for phospholipid-binding in the Sec14p cavity. […]
S. cerevisiae BY4741 (Open Biosystems) was grown in YPD medium in the absence or presence of additional phosphatidylinositol or phosphatidylcholine (200 μM each, Sigma-Aldrich 79401 or P3556, respectively). OD600 values of exponentially growing yeast cultures were recorded with a robotic system. […]

The next data set is described as follows: MTS cytotoxicity assay. It counts as cell-based. The settings on record: human, HepG2 cells, triplicates, logistic regression.
Description: as §1, §2, §3

In a further data set the test system is C. neoformans ATCC 36556. As to the kind of experiment: C. neoformans growth inhibition (CLSI M27-A3 broth microdilution). Type of data set: cell-based. The settings on record: for MIC: Cryptococcus neoformans, ATCC36556, 72 h. An excerpt: (§4) Sec14p is reported to be essential for virulence as well as for growth in C. neoformans. The S. cerevisiae and C. neoformans proteins show 53% similarity by pair-wise alignment with higher conservation of the residues in the lipid-binding pocket (S2 Fig). Furthermore, three of the four sites identified to be critical for NGx04 sensitivity, are conserved (S2 Fig). In combination with the current high unmet medical need related to Cryptococcus infections we prioritized testing of NGx04 and 18 related ergoline scaffold analogs against this pathogen. Two clinical isolates of C. neoformans (ATCC 36556 and ATCC 90113) were plated in triplicates on increasing drug concentrations and MIC-2 (50% inhibition) and MIC-0 (no visible fungal growth) concentrations were scored after 72 hrs. (Fig 5).
(§5) C. neoformans strains ATCC 36556, a lung isolate, and ATCC 90113, a cerebrospinal fluid isolate, were purchased from ATCC, Manassas, VA (USA). BPY22 was obtained from.
(§6) Antifungal susceptibility testing was conducted according to the Clinical and Laboratory Standards Institute (CLSI) guidelines for broth microdilution assay M27-A3. Testing was performed in RPMI-1640 (HyClone) with 2.05 mM glutamine, phenol red, without bicarbonate and buffered with 0.165 mol/l 3-(N-morpholino) propanesulfonic acid (MOPS). The medium was adjusted to pH 7.0 and sterilized with a 0.2 μm filter. Two endpoints were recorded: MIC-0 (complete inhibition with no visible fungal growth) and MIC-2 (prominent inhibition corresponding to >50% growth reduction).

Another data set has as its system C. neoformans ATCC 90113. The data set is described as above. It counts as cell-based. The settings on record: 72 h, triplicate values printed singly; for MIC: Cryptococcus neoformans, ATCC90113, 72 h.
Description: as §4, §5, §6

The test system of another data set is S. cerevisiae. As to the kind of experiment: High-throughput screen of compound archive against S. cerevisiae. It counts as cell-based. The settings on record: Saccharomyces cerevisiae; validated hit of high-throughput screen.
Data set [4] is described as follows: Artificial membrane permeability assay. Type of data set: in vitro ADME. The settings on record: PAMPA, to assess blood brain barrier penetration. As to the method: Invasion of the central nervous system by C. neoformans is a prerequisite for fungal meningitis. We thus performed artificial membrane permeability assays in order to assess the potential of the cryptococcal active compounds to penetrate the blood brain barrier (S7 Fig). […] High permeability of ergolines is expected, as members of the ergoline class are used as psychedelic narcotics since their discovery.
Metabolic stability was determined as described previously on a fully automated platform, the artificial membrane permeability assays was performed as described previously
Supplementary file pgen.1006374.s007.eps: S7 Fig Physicochemical properties of ergolines. Rat liver microsome and artificial membrane permeability assay. NGx04 and close analogues were tested for metabolic stability (CYP MetCL) and artificial membrane permeability (logPAMPA) in duplicates. Value pairs are color coded and binning is indicated. (EPS) Click here for additional data file.

Setting [5] is: 50% inhibition, 72 h, triplicate values printed singly, read-out: ATCC36556 MIC-2.
[6] abbreviates: no visible fungal growth, 72 h, triplicate values printed singly, read-out: ATCC36556 MIC-0.
The mark [7] stands for this setting: 50% inhibition, read-out: ATCC90113 MIC-2.
[8] abbreviates: no visible fungal growth, read-out: ATCC90113 MIC-0.

Like-named read-outs stand apart in the source and are kept apart here.

Consider `COC(=O)C1CC2c3ccc([N+](=O)[O-])c4c3C(CC2N(C)C1)CN4C(=O)OCC(Cl)(Cl)Cl` (stereo not drawn) [NGx04], for which the IC50 was 18.9 µM in data set [1] (read-out: IC50, strain KES1/kes1); 6.3 µM in [1] (read-out: IC50, strain SEC14/sec14); 11.8 µM in [1] (read-out: IC50, strain ho/ho); 5.2 µM in data set [1] (read-out: IC50, strain itr1/itr1); 4.4 µM in data set [1] (read-out: IC50, strain spo14/spo14); 3.8 µM in [1] (read-out: IC50, strain srf1/srf1). Besides, the IC50 is 318 µM in [3] (read-out: IC50, SEC14 S173A); 225 µM in data set [3] (read-out: IC50, SEC14 V154I); 41.1 µM in data set [3] (read-out: IC50, SEC14 WT plasmid); 158 µM in “MTS cytotoxicity assay”; below 20 µM in the data set with S. cerevisiae. Further, in data set [2] (share of cell lines, sensitive defined by Amax <50% and IC50 <30 μM), the cell lines sensitive entry is “one fourth”. Further, the “cell lines not notably affected / not significantly inhibited” value in [2] (share of the tested CCLE cell lines) is given as 76%. The “effect of excess PI or PC on growth inhibition” value in the data set on S. cerevisiae BY4741 is “alleviate NGx04-mediated growth inhibition”. Moreover, the minimal inhibitory concentration (MIC) is 25 µg/mL in the data set on C. neoformans ATCC 36556 (setting [5]), 50 µg/mL in the data set with C. neoformans ATCC 36556 (setting [6]), 25 µg/mL in the data set on C. neoformans ATCC 90113 (setting [7]) and above 50 µg/mL in the data set on C. neoformans ATCC 90113 (setting [8]). Besides, in the data set with C. neoformans ATCC 36556 (clinical isolates ATCC 36556 and ATCC 90113, tested dose range), the “C. neoformans growth inhibition (in words)” value is recorded as “inhibit C. neoformans growth”. Also, the “ATCC36556 MIC-0” value with C. neoformans ATCC 36556 (no visible fungal growth, 72 h, triplicate values printed singly) was above 50 µg/mL.
On to `CC(C)N1CC(C(=O)O)CC2c3cccc4c3C(CC21)CN4C(=O)OC(C)(C)C` (stereo not drawn) [NGx13], for which the “ATCC36556 MIC-2” value with C. neoformans ATCC 36556 (50% inhibition, 72 h, triplicate values printed singly) is 13 µg/mL. Further, the MIC in the data set with C. neoformans ATCC 36556 (setting [5]) is 25 µg/mL; with C. neoformans ATCC 36556 (setting [6]), above 50 µg/mL; in the data set with C. neoformans ATCC 90113 (setting [7]) it was above 50 µg/mL; in the data set with C. neoformans ATCC 90113 (setting [8]), above 50 µg/mL. Moreover, in the data set with C. neoformans ATCC 90113 (50% inhibition), the “ATCC90113 MIC-2” value was determined as 50 µg/mL. The artificial membrane permeability entry in data set [4] is “exception”.
